Assay results reported in patent US10239847B1, “Method for 2-oxothiazolidine-4-carboxylic acid for cellular glutathione” (JBP Group LLC, priority 2016, dated 2019).
“Also recorded” adds a separate entry of the source. Read-outs that look alike come from different tables or passages of the source.

What was measured:
Rat [1] = test: Single IV toxicity (NOAEL/LOAEL), rat; format: in vivo; conditions: compared to IV rat, suggested human oral dose 0.025 g/kg
Description: (§1) The following tables are a compilation of known results and estimates of NOAEL/LOAEL for various animal species and humans. […] In addition, genetic toxicity studies, Ames Test, Chromosome Aberration, and Mouse Micronucleus have been conducted and all of these studies were negative for genetic toxicity (i.e. non-genotoxic).
(§2) The following is a compilation of known results and estimates of NOAEL/LOAEL for various animal species and humans.

Mouse [2] = test: Single IV toxicity (NOAEL/LOAEL), mouse; format: in vivo; conditions: printed 'compared to IV rat', suggested human oral dose 0.025 g/kg
Description: as §1, §2

Dog [3] = test: Single IV toxicity (NOAEL/LOAEL), dog; format: in vivo; conditions: compared to IV dog, suggested human oral dose 0.025 g/kg
Description: as §1, §2

Rat [4] = test: Once daily IV for 28 days, rat; format: in vivo; conditions: compared to IV rat, suggested human oral dose 0.025 g/kg
Description: as §1, §2

Dog [5] = test: Once daily IV for 28 days, dog; format: in vivo; conditions: compared to IV dog, suggested human oral dose 0.025 g/kg
Description: as §1, §2

Human HIV patients [6] = test: Clinical: single IV then six biweekly infusions, 13 administrations, HIV patients; format: in vivo; conditions: compared to human IV; suggested human oral dose 25 mg/kg/day
Description: as §1, §2

Human HIV patients [7] = test: Clinical: single oral dose then 3000, 4500, 9000 mg/day for 28 days, HIV patients; format: in vivo; conditions: compared to human oral, suggested human oral dose 25 mg/kg/day
Description: as §1, §2

Human HIV patients [8] = test: Clinical: oral daily for 6 months, HIV patients; format: in vivo; conditions: compared to human oral, suggested human oral dose 25 mg/kg/day
Description: as §1, §2

Human HIV patients [9] = test: Clinical: oral ≥25 mg/kg daily for 1 week, HIV patients; format: in vivo; conditions: compared to human oral, suggested human oral dose 25 mg/kg/day
Description: as §1, §2

Human ARDS patients [10] = test: Clinical: IV 63 mg/kg every 8 hours for 10 days, ARDS patients; format: in vivo; conditions: compared to IV human (ARDS); suggested human oral dose 25 mg/kg/day
Description: as §1, §2

Human HIV patients [11] = test: Clinical: orally up to 9000 mg/day for 2 years, HIV patients; format: in vivo
dogs [12] = test: Acute and repeat intravenous NOAEL in dogs; format: in vivo; conditions: recommended daily intake 1.75 g (~25 mg/kg) compared to dog IV NOAEL
Description: (§3) Utilizing animal (dog and rat) data and comparing that to the recommended daily procysteine (Cellactin) intake of 1.75 g or ˜25 mg/kg, that represents 18× to 96× safety margin compared to acute no adverse effect level (NOAEL) and repeat NOAEL intravenous administration in dogs (450 mg/kg) and rats (2400 mg/kg), respectively. The safety margin may be even greater if compared to animal oral administration data.
(§4) Acute NOAEL and repeat NOAEL for intravenous administration in dogs was 450 mg/kg and in rats was 2400 mg/kg, with these values representing the highest dosages intravenously tested and it is assumed that the NOAEL levels would be even higher for oral administration in animals. […] Therefore, it is reasonable to expect that a recommended human oral, daily procysteine (Cellactin) intake of 1.75 grams will be safe and an acceptable daily intake of up to 9 grams orally could also be considered safe.

rats [13] = test: Acute and repeat intravenous NOAEL in rats; format: in vivo; conditions: recommended daily intake 1.75 g (~25 mg/kg) compared to rat IV NOAEL
Description: as §3, §4

human [14] = test: Human intravenous NOAEL calculations; format: in vivo; conditions: oral daily intake 1.75 grams compared to human intravenous NOAEL calculations
Description: (§5) This would then result in an EDI/ADI ratio of 9 grams/day/9 grams/day=1. Without knowing the NOAEL or LOAEL for humans it is difficult to determine a true estimate of margin of safety. […] However, it would be reasonable to assume that a much higher estimate of safety margin would be expected based on the 4-8× estimate comparing oral, daily Procysteine (Cellactin) intake of 1.75 grams to human intravenous NOAEL calculations shown above in section 4.1 and 18 or 96× comparing to dog and rat intravenous NOAEL calculations, respectively shown above in Section 4.1. It is reasonable to conclude that the safety margin would be even greater if compared to animal oral administration data.
as §5, with “Without” for “This would then result in an EDI/ADI ratio of 9 grams/day/9 grams/day=1. Without”

[15] = Shelf life / purity stability of Cellactin; format: physicochemical
Description: FIG. 9 illustrates Cellactin shelf life estimation by extrapolation. As depicted that upper dotted line indicates an upper acceptance of 100 percent stability. The lower dotted line indicates 99 percent stability. The solid line represents the extrapolation line with the triangles representing raw data. The product has been extrapolated to be stable for 2 years as supplied if stored in original package at ambient temperature and protected from heat and moisture. […] Confirmation of extrapolation assumes the change pattern may continue to fit model for at least 24 months.

Human HIV patients [16] = conditions: single IV then six biweekly infusions, 13 administrations, highest dose tested; cited from earlier work
Human HIV patients [17] = conditions: oral ≥25 mg/kg daily for 1 week, highest dose tested; cited from earlier work
Human ARDS patients [18] = conditions: IV every 8 hours for 10 days, highest dose tested, cited from earlier work
Human HIV patients [19] = conditions: cited from earlier work
human [20] = conditions: cited from earlier work
blood glutathione levels = conditions: human, oral 25-129 mg/kg (1.75-9 g/day), dose response manner; cited from earlier work
Mouse [21] = conditions: in vivo; cited from earlier work
patients with ARDS [22] = conditions: first Phase II trial, 32 ARDS patients, IV; cited from earlier work
patients with ARDS [23] = conditions: Phase II, versus placebo; cited from earlier work
[24] = tested on: glutathione in rat lungs and leukocytes; conditions: sulfur amino acid deficient rat diets, supplementation; cited from earlier work
[25] = tested on: tissue glutathione levels; conditions: acutely septic rats; cited from earlier work
[26] = tested on: tissue glutathione levels; conditions: rodent brains; cited from earlier work
[27] = tested on: cellular glutathione levels; conditions: glutathione-depleting agents administered to otherwise healthy animals; cited from earlier work
liver glutathione levels = conditions: fasted mice, dietary supplementation; cited from earlier work
[28] = tested on: intracellular levels of glutathione; conditions: preclinical studies; cited from earlier work
Rat [29] = conditions: in vivo, iv; cited from earlier work
Mouse [30] = conditions: in vivo, iv; cited from earlier work
Dog [31] = conditions: in vivo, iv; cited from earlier work
Rat, neonate = conditions: in vivo, iv; cited from earlier work
Rat [32] = conditions: in vivo, iv; cited from earlier work; remark: listed apart in the source
Dog [33] = conditions: in vivo, iv; cited from earlier work; remark: listed apart in the source
dogs [34] = conditions: dog, in vivo; cited from earlier work
rats [35] = conditions: rat, in vivo; cited from earlier work
[36] = human, oral, as used for the EDI/ADI ratio

O=C1N[C@H](C(=O)O)CS1 [procysteine, L-2-oxothiazolidine-4-carboxylate]
Safety Margin Human Oral (Rat [1]): 96× compared | Safety Margin Human Oral (Mouse [2]): 96× compared | Safety Margin Human Oral (Dog [3]): 18× compared | Safety Margin Human Oral (Rat [4]): 96× compared | Safety Margin Human Oral (Dog [5]): 18× compared | Safety Margin Human Oral (Human HIV patients [6]): 4X compared | Safety Margin Human Oral (Human HIV patients [7]): 5X compared | Safety Margin Human Oral (Human HIV patients [8]): 5X compared | Safety Margin Human Oral (Human HIV patients [9]): 1X compared | Safety Margin Human Oral (Human ARDS patients [10]): 8X compared | EDI/ADI ratio (Human HIV patients [11]; 9 grams/day / 9 grams/day): 1 | Safety Margin Human Oral (Human HIV patients [11]; compared to human oral, 2 years, suggested human oral dose 25 mg/kg/day): 5X compared | ADI (Human HIV patients [11]; [36]): < 9 grams/day | estimated daily intake (EDI) (Human HIV patients [11]; [36]): < 9 grams/day | acceptable daily intake (ADI) (Human HIV patients [11]; human, oral, based on 9 grams per day for 2 years): up to 9 grams per day | safety margin (Human HIV patients [11]; recommended oral daily intake 1.75 g compared to 9 grams per day taken orally for 2 years): 5 × | safety margin (dogs [12]): 18 × | safety margin (rats [13]): 96 × | estimate of safety margin (human [14]): 4-8 × | shelf life (stable as supplied), by extrapolation ([15]; original package, ambient temperature, protected from heat and moisture): 2 years | purity percent change ([15]; two preparation batches, T0 to T6 (months)): No purity percent change | NOAEL (Human HIV patients [16]): ≥100 mg/kg/day | NOAEL (Human HIV patients [17]): ≥25 mg/kg/day | NOAEL (Human ARDS patients [18]; expressed per day): ≥ 189 mg/kg/day | NOAEL (Human ARDS patients [18]): ≥63 mg/kg/8 hours | NOAEL (Human HIV patients [19]; Human HIV patients, orally up to 9000 mg/day for 2 years, highest dose tested): ≥129 mg/kg/day | changes in serum chemistry or hematology (Human HIV patients [19]; human, up to 9 grams per day orally for 2 years): without clinically significant changes | adverse experiences possibly related to treatment (human [20]; across all clinical trials): only minor adverse experiences | statistically significant adverse events (human [20]; human clinical trials): No statistical significant adverse events were observed | tolerability (human [20]; human clinical trials): well tolerated | tolerability (human [20]; human clinical trials, listed as procysteine (Cellactin)): generally well tolerated without observed adverse effects; also recorded: well tolerated | blood glutathione levels (blood glutathione levels): significant increase | Mouse Micronucleus, genetic toxicity (Mouse [21]): negative | independence from mechanical ventilation versus placebo (patients with ARDS [22]): a median of five days earlier | efficiency in transporting oxygen to the blood stream (measure of lung function) (patients with ARDS [23]): to a greater degree than did placebo-treated patients | glutathione in rat lungs and leukocytes [24]: preserved | tissue glutathione levels [25]: increased (repleted) | tissue glutathione levels [26]: increased (repleted) | cellular glutathione levels [27]: maintained | liver glutathione levels (liver glutathione levels): increased | ROS damage [28]: prevent | intracellular levels of glutathione [28]: increase | NOAEL (Rat [29]): ≥2400 mg/kg | NOAEL (Mouse [30]): ≥2400 mg/kg | NOAEL (Dog [31]): ≥450 mg/kg | NOAEL (Rat, neonate): ≥450 mg/kg | NOAEL (Rat [32]): ≥2400 mg/kg | NOAEL (Dog [33]): ≥450 mg/kg | acute NOAEL and repeat NOAEL, intravenous administration (dogs [34]): 450 mg/kg | acute NOAEL and repeat NOAEL, intravenous administration (rats [35]): 2400 mg/kg
